This is an account of results in patent US9422239B1, “Dual PPAR-δ PPAR-γ agonists” (Auburn University, priority 2013, dated 2016).

For data set [1] the following is noted: in vivo; cited from earlier work.
The nature of data set [2]: Heart size (heart weight to body weight ratio). The data set is classed as in vivo. The settings on record: 10 mg/kg oral daily for 1 month, wild type and db/db mice. How it is done:
Diabetic db/db mice were fed a normal rodent chow diet. […] Mice were then weighed and their hearts were extracted and weighed. The heart weight of the mice compared to the body weight of the mice was then calculated based upon heart weight to body weight ratio.

The next data set concerns db/db mice. Nature of the data set: Hippocampal slice electrophysiology (LTP, PTP). The data set is classed as in vivo.
A short description of data set [3]: Biodistribution by LC-Mass Spectral analysis. The settings on record: mice, 3 mg/kg (table); for concentration at 4 h: mouse, po, 3 mg/kg.
Another data set has as its system 3T3-L1 adipocytes. Put plainly: Lipid accumulation by oil red-o staining. In kind it is cell-based. The settings on record: 6 days, oil red-o stain. How it is done:
3T3L1 adipocytes were cultured and treated with the novel compounds for a period of 6 days. Lipid accumulation was determined by oil red-o staining, and measured the absorbance spectrophotometrically at a wavelength of 510 nm and standardized to total protein concentrations. Data from lipid accumulation studies were compared to cells treated with rosiglitazone (a full PPARγ agonist).

Another data set has as its target T1, PPARγ (AP2-PPRE) (Homo sapiens, UniProt P37231).
T1 construct: expressed in transfected cells; host or cells: HEK-293
T1 sequence (P37231 1-505): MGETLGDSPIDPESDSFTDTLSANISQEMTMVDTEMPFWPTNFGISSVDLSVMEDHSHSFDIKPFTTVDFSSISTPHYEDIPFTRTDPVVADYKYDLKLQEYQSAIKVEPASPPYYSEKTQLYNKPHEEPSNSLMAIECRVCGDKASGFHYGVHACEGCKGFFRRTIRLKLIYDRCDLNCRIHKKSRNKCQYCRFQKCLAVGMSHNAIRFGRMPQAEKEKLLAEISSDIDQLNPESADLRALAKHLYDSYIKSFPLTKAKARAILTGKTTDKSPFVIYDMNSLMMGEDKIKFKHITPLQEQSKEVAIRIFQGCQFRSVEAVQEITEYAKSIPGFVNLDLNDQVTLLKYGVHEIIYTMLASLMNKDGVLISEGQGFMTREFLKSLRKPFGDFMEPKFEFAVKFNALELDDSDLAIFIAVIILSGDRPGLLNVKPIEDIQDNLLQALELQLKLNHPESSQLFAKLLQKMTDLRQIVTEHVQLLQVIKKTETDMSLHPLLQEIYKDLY
T1 sequence (P19793 1-462 partner): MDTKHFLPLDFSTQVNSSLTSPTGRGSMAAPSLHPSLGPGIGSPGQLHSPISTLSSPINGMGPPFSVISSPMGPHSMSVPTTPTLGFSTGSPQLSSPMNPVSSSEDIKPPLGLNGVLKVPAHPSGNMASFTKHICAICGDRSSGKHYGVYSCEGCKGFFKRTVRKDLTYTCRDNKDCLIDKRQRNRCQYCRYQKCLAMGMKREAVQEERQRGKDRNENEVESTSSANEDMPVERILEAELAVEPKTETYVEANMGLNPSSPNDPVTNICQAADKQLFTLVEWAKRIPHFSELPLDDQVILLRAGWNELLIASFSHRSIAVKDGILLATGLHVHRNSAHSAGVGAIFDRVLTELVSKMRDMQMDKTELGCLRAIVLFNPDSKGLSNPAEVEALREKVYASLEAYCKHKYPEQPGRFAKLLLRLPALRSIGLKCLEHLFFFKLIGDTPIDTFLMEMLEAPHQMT
Nature of the data set: AP2-PPRE luciferase assay in HEK-293 cells. The data set is classed as cell-based. The note with it: luciferase assay, HEK-293 cells, 10 μM. The source says:
(§1) To validate the specificity of the novel compounds towards activation of PPARγ/δ targets, we tested the compounds capacity to bind to select PPARγ/δ Peroxisome Proliferator Response Elements (PPRE). The PPRE are unique sites located in the promoter region where PPARs bind and transcriptionally activate the target genes. AP2-PPRE is the PPARγ target involved in adipocyte growth and differentiation. PDK4-PPRE is a PPARδ target involved in regulating energy metabolism in the cell. These PPREs were inserted into a PGL3 luciferase vectors containing CMV promoters (ADDGENE) using PCR. These vectors were co-transfected with RXR, PPARγ/PPARδ and p-galactosidase vectors into HEK-293 cells using Lipofectamine 2000 (Invitrogen). Relative light units (RLU) were measured using a Glomax Luminometer (Promega). Data were standardized to p-galactosidase activity using ONPG (Promega).

Another data set addresses T2, PPARδ (PDK4-PPRE) (Homo sapiens, UniProt Q03181).
T2 construct: expressed in transfected cells; host or cells: HEK-293
T2 sequence (Q03181 1-441): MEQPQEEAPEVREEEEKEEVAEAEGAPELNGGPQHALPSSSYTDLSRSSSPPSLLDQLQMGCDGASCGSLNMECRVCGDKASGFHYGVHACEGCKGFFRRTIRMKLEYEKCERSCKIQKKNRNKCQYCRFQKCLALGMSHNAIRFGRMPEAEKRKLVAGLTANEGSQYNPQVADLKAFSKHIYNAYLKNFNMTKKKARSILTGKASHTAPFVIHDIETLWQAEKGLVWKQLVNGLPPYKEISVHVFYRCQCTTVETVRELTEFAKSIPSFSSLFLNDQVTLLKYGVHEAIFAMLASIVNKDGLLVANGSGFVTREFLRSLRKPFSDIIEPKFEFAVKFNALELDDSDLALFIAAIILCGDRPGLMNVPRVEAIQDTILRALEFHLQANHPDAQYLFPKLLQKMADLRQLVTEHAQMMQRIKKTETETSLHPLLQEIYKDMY
T2 sequence (P19793 1-462 partner): T1 sequence (P19793 1-462 partner)
Put plainly: PDK4-PPRE luciferase assay in HEK-293 cells. The data set is classed as cell-based.
Description: as §1

Data set [4] relates to C2C12 skeletal muscle cells. Nature of the data set: Mitochondrial biogenesis markers by quantitative RT-PCR. The data set is classed as cell-based. The note with it: 4 days. How it is done: Therefore, to test the effects of the novel compounds on mitochondrial biogenesis, C2C12 skeletal muscle cells were cultured and treated with the novel compounds for 4 days. Changes associated with markers for mitochondrial biogenesis were determined by quantitative real time PCR.

For `CN(CCOc1ccc(CC2SC(=O)NC2=O)cc1)c1ccccn1` (stereo not shown) [Rosiglitazone, rosiglitazone, reference compound], the Half-life in data set [1] is 4 h. The Heart size result in data set [2] is reported as “increase in heart size”. For the same compound, the “Amelioration of LTP reduction” value in the data set on db/db mice (ICV) is reported as greater than 50%. Besides, the “Change in the slope of fEPSP after sixty minutes of induction of LTP” value in the data set on db/db mice (ICV) is reported as 148.33±2.5%. In addition, the “fEPSP slope (LTP studies)” value with db/db mice (oral) was found to be 126±5.3%. In addition, the Concentration entry in data set [3] (Brain, oral, 4 hours) is “Not Detected”. The concentration at 4 h in data set [3] (adipose, Concentration) was found to be 13 ng/mL; in data set [3] (adipose, Tissue Concentration), 5 ng/mL; in data set [3] (adipose, Tissue Distribution) it was 2.24 ng/mL; in data set [3] (blood, Concentration), 247 ng/mL; in data set [3] (heart, Concentration), 12.8 ng/mL; in data set [3] (heart, Tissue Concentration), 2.12 ng/mL. In addition, the concentration at 4 h worked out at 0.64 ng/mL in data set [3] (heart, Tissue Distribution); 250 ng/mL in data set [3] (liver, Concentration); 8.89 ng/mL in data set [3] (liver, Tissue Concentration); 4.95 ng/mL in data set [3] (liver, Tissue Distribution).

Take `CC(C(=O)O)c1ccc(CNCc2ccc(Cl)c(Cl)c2)cc1` (stereo not shown) [Compound 4-23]: the Lipid accumulation result in the data set with 3T3-L1 adipocytes is “less lipid accumulation”.

As for `COc1ccc(CN(CCN2C(=O)c3ccccc3C2=O)S(=O)(=O)c2c(C)cc(C)cc2C)cc1` [Compound 3-91], on PPARγ (AP2-PPRE), the “Binding affinity for the AP2-PPRE” value is given as “strong binding affinity”. The “Binding affinity for the PDK4-PPRE” value on PPARδ (PDK4-PPRE) was “less binding affinity”. Moreover, in the data set with 3T3-L1 adipocytes, the Lipid accumulation result is given as “comparable to rosiglitazone”.

In the case of `CCOC(CNCc1ccc(C(F)(F)F)cc1)OCC` [Compound 3-121], the “Binding affinity for the AP2-PPRE” value at PPARγ (AP2-PPRE) is given as “less binding affinity”. Besides, on PPARδ (PDK4-PPRE), the “Binding affinity for the PDK4-PPRE” value is given as “less binding affinity”. For the same compound, the Lipid accumulation result with 3T3-L1 adipocytes is “less lipid accumulation”; in the data set on 3T3-L1 adipocytes (listed as compound 3-121), “insignificant induction of adiposity”.

For `Cc1cc(SCc2sc(-c3ccc(C(F)(F)F)c(F)c3)nc2C)ccc1OCC(=O)O` [GW0742, reference compound], the “Gene expression of mitochondrial markers” value in data set [4] is on record as “increases”.
